Results: ChEMBL document CHEMBL1131037, “Structure-based design, synthesis, and biological evaluation of irreversible human rhinovirus 3C protease inhibitors. 2. Peptide structure-activity studies” (J Med Chem, 1998)

What follows are compounds tested on rhinovirus B14 (assay: Antiviral activity against HRV-14 in cell culture). Conditions: Rhinovirus B.
Format: functional, organism-based
In the case of `CCOC(=O)/C=C/[C@H](CCC(N)=O)NC(=O)[C@H](Cc1cccs1)NC(=O)[C@H](CC(C)C)NC(=O)OCc1ccccc1`, the EC50 is reported as 0.56 µM. With `CCOC(=O)/C=C/[C@H](CCC(N)=O)NC(=O)[C@H](Cc1ccc(CCO)cc1)NC(=O)[C@H](CC(C)C)NC(=O)OCc1ccccc1` the EC50 was 3.5 µM. Work on `CCOC(=O)/C=C/[C@H](CCC(N)=O)NC(=O)[C@H](Cc1ccc(CO)cc1)NC(=O)[C@H](CC(C)C)NC(=O)OCc1ccccc1` yielded an EC50 of 0.55 µM. With `CCOC(=O)/C=C/[C@H](CCC(N)=O)NC(=O)[C@H](Cc1ccccc1)NC(=O)[C@H](CC(C)C)NC(=O)OCc1ccncc1` the EC50 was 56 µM. For `CCOC(=O)/C=C/[C@H](CCC(N)=O)NC(=O)[C@H](Cc1ccccc1)NC(=O)[C@@H](NC(=O)OCc1ccccc1)C(C)C`, the EC50 was 0.38 µM. Work on `CCOC(=O)/C=C/[C@H](CC[S+](C)[O-])NC(=O)[C@H](Cc1ccccc1)NC(=O)[C@H](CC(C)C)NC(=O)OCc1ccccc1` (some centres not stated) yielded an EC50 of 1.6 µM. `CCOC(=O)/C=C/[C@H](CCC(N)=O)NC(=O)[C@H](Cc1ccccc1)NC(=O)OCc1ccccc1` was tested, and the EC50 was 5.6 µM. With `CCOC(=O)/C=C/[C@H](CCC(N)=O)NC(=O)[C@H](Cc1ccccc1)NC(=O)[C@H](CC(C)C)NC(=O)CO` the EC50 was 30 µM. Work on `CCOC(=O)/C=C/[C@H](CCC(N)=O)NC(=O)[C@H](Cc1nccn1C)NC(=O)[C@H](CC(C)C)NC(=O)OCc1ccccc1` yielded an EC50 of 10 µM. `CCOC(=O)/C=C/[C@H](CCC(N)=O)NC(=O)[C@H](Cc1ccccc1)NC(=O)[C@H](CC(C)C)NC(=O)OCc1ccccc1Cl` showed an EC50 of 0.63 µM. Work on `CCOC(=O)/C=C/[C@H](CCC(N)=O)NC(=O)[C@H](Cc1ccccc1)NC(=O)[C@H](CC(C)C)NC(=O)N(C)Cc1ccccc1` yielded an EC50 of 5.6 µM.

What follows are compounds tested against T1, Human rhinovirus A protease (Human rhinovirus sp.) (UniProt Q4U254) (assay: Binding affinity on human Rhinovirus 3C protease (rhinovirus serotype 14)). Conditions: not given.
T1 sequence (whole entry): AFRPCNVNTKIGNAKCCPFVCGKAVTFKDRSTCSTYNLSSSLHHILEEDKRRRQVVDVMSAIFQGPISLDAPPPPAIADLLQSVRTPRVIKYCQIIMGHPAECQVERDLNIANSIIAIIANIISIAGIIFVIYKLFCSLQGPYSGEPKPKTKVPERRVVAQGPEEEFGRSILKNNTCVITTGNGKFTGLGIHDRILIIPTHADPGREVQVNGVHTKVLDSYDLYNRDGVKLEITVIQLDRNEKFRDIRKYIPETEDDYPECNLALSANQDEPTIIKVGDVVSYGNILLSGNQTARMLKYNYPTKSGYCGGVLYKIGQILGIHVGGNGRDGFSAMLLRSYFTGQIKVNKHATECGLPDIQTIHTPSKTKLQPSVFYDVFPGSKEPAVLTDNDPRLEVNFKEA
For `CCOC(=O)/C=C/[C@H](CCC(N)=O)NC(=O)[C@H](Cc1cccs1)NC(=O)[C@H](CC(C)C)NC(=O)OCc1ccccc1`, the K obs / 1 was 20000 M⁻¹ s⁻¹. `CCOC(=O)/C=C/[C@H](CCC(N)=O)NC(=O)[C@H](Cc1ccc(CCO)cc1)NC(=O)[C@H](CC(C)C)NC(=O)OCc1ccccc1` showed a K obs / 1 of 43100 M⁻¹ s⁻¹. `CCOC(=O)/C=C/[C@H](CCC(N)=O)NC(=O)[C@H](Cc1ccc(CO)cc1)NC(=O)[C@H](CC(C)C)NC(=O)OCc1ccccc1` was tested, and the K obs / 1 was 82300 M⁻¹ s⁻¹. Compound `CCOC(=O)/C=C/[C@H](CCC(N)=O)NC(=O)[C@H](Cc1ccccc1)NC(=O)[C@H](CC(C)C)NC(=O)OCc1ccncc1` has a K obs / 1 of 12000 M⁻¹ s⁻¹. `CCOC(=O)/C=C/[C@H](CCC(N)=O)NC(=O)[C@H](Cc1ccccc1)NC(=O)[C@@H](NC(=O)OCc1ccccc1)C(C)C` showed a K obs / 1 of 62500 M⁻¹ s⁻¹. Compound `CCOC(=O)/C=C/[C@H](CC[S+](C)[O-])NC(=O)[C@H](Cc1ccccc1)NC(=O)[C@H](CC(C)C)NC(=O)OCc1ccccc1` (some centres not stated) has a K obs / 1 of 2200 M⁻¹ s⁻¹. With `CCOC(=O)/C=C/[C@H](CCC(N)=O)NC(=O)[C@H](Cc1ccccc1)NC(=O)OCc1ccccc1` the K obs / 1 was 400 M⁻¹ s⁻¹. Work on `CCOC(=O)/C=C/[C@H](CCC(N)=O)NC(=O)[C@H](Cc1ccccc1)NC(=O)[C@H](CC(C)C)NC(=O)CO` yielded a K obs / 1 of 2100 M⁻¹ s⁻¹. For `CCOC(=O)/C=C/[C@H](CCC(N)=O)NC(=O)[C@H](Cc1nccn1C)NC(=O)[C@H](CC(C)C)NC(=O)OCc1ccccc1`, the K obs / 1 was 8900 M⁻¹ s⁻¹. With `CCOC(=O)/C=C/[C@H](CCC(N)=O)NC(=O)[C@H](Cc1ccccc1)NC(=O)[C@H](CC(C)C)NC(=O)OCc1ccccc1Cl` the K obs / 1 was 19000 M⁻¹ s⁻¹. Work on `CCOC(=O)/C=C/[C@H](CCC(N)=O)NC(=O)[C@H](Cc1ccccc1)NC(=O)[C@H](CC(C)C)NC(=O)N(C)Cc1ccccc1` yielded a K obs / 1 of 3200 M⁻¹ s⁻¹.

The compounds below were run against T1, Human rhinovirus A protease (Human rhinovirus sp.) (assay: Binding affinity on human Rhinovirus 3C protease (rhinovirus serotype 16)). Conditions: not given.
`CCOC(=O)/C=C/[C@H](CCC(N)=O)NC(=O)[C@H](Cc1cccs1)NC(=O)[C@H](CC(C)C)NC(=O)OCc1ccccc1` showed a K obs / 1 of 4500 M⁻¹ s⁻¹. Work on `CCOC(=O)/C=C/[C@H](CCC(N)=O)NC(=O)[C@H](Cc1ccc(CCO)cc1)NC(=O)[C@H](CC(C)C)NC(=O)OCc1ccccc1` yielded a K obs / 1 of 1300 M⁻¹ s⁻¹.

What follows are compounds tested against T1, Human rhinovirus A protease (Human rhinovirus sp.) (assay: Binding affinity on human Rhinovirus 3C protease (rhinovirus serotype 2)). Conditions: not given.
`CCOC(=O)/C=C/[C@H](CCC(N)=O)NC(=O)[C@H](Cc1cccs1)NC(=O)[C@H](CC(C)C)NC(=O)OCc1ccccc1` was tested, and the K obs / 1 was 1800 M⁻¹ s⁻¹. With `CCOC(=O)/C=C/[C@H](CCC(N)=O)NC(=O)[C@H](Cc1ccc(CCO)cc1)NC(=O)[C@H](CC(C)C)NC(=O)OCc1ccccc1` the K obs / 1 was 700 M⁻¹ s⁻¹.

The compounds below were run on rhinovirus B14 (assay: Cytotoxic activity against HRV-14 in cell culture). Conditions: Rhinovirus B.
Format: functional, rhinovirus 14
`CCOC(=O)/C=C/[C@H](CCC(N)=O)NC(=O)[C@H](Cc1cccs1)NC(=O)[C@H](CC(C)C)NC(=O)OCc1ccccc1` was tested, and the CC50 was > 100 µM. For `CCOC(=O)/C=C/[C@H](CCC(N)=O)NC(=O)[C@H](Cc1ccc(CCO)cc1)NC(=O)[C@H](CC(C)C)NC(=O)OCc1ccccc1`, the CC50 was > 320 µM. In the case of `CCOC(=O)/C=C/[C@H](CCC(N)=O)NC(=O)[C@H](Cc1ccc(CO)cc1)NC(=O)[C@H](CC(C)C)NC(=O)OCc1ccccc1`, the CC50 is reported as > 320 µM. `CCOC(=O)/C=C/[C@H](CCC(N)=O)NC(=O)[C@H](Cc1ccccc1)NC(=O)[C@H](CC(C)C)NC(=O)OCc1ccncc1` was tested, and the CC50 was > 320 µM. For `CCOC(=O)/C=C/[C@H](CCC(N)=O)NC(=O)[C@H](Cc1ccccc1)NC(=O)[C@@H](NC(=O)OCc1ccccc1)C(C)C`, the CC50 was > 320 µM. For `CCOC(=O)/C=C/[C@H](CC[S+](C)[O-])NC(=O)[C@H](Cc1ccccc1)NC(=O)[C@H](CC(C)C)NC(=O)OCc1ccccc1` (some centres not stated), the CC50 was > 100 µM. In the case of `CCOC(=O)/C=C/[C@H](CCC(N)=O)NC(=O)[C@H](Cc1ccccc1)NC(=O)OCc1ccccc1`, the CC50 is reported as > 100 µM. For `CCOC(=O)/C=C/[C@H](CCC(N)=O)NC(=O)[C@H](Cc1ccccc1)NC(=O)[C@H](CC(C)C)NC(=O)CO`, the CC50 was > 320 µM. `CCOC(=O)/C=C/[C@H](CCC(N)=O)NC(=O)[C@H](Cc1nccn1C)NC(=O)[C@H](CC(C)C)NC(=O)OCc1ccccc1` was tested, and the CC50 was > 320 µM. In the case of `CCOC(=O)/C=C/[C@H](CCC(N)=O)NC(=O)[C@H](Cc1ccccc1)NC(=O)[C@H](CC(C)C)NC(=O)OCc1ccccc1Cl`, the CC50 is reported as > 100 µM. For `CCOC(=O)/C=C/[C@H](CCC(N)=O)NC(=O)[C@H](Cc1ccccc1)NC(=O)[C@H](CC(C)C)NC(=O)N(C)Cc1ccccc1`, the CC50 was > 100 µM.
